Reference: US8933099B2, “Monocyclic pyridine derivative” (Eisai R&D Management Co., Ltd., priority 2013, dated 2015)

Test system: human endometrial cancer cell line AN3CA xenograft
Experiment: Antitumor effect in AN3CA subcutaneous xenograft model in mice
Assay type: in vivo
Details: oral, once a day for 14 days, tumor volume last day
Source text: Human endometrial cancer cell line AN3CA (ATCC Number HTB-111), which had been cultured in an RPM-1640 medium containing 10% FBS, and penicillin and streptomycin, were adjusted to a concentration of 1×10^8 cells/mL with Hanks' Balanced Salt Solution (GIBCO #24020) to prepare a cell suspension, and the suspension was mixed with […] (BD Biosciences, Cat#354234) in a ratio of 1:1 to prepare a cell suspension in a concentration of 5×10^7 cells/ml. The cell suspension was inoculated in a volume of […] into a subcutaneous part of a right flank of nude mice, 7 weeks of age (BALB/cAJcl-nu/nu, female, Clea Japan Inc.). Eleven days after cell inoculation, the shortest diameter and the longest diameter of a tumor in each mouse were measured by using an electronic digital caliper (Digimatic™ caliper, Mitutoyo Corporation), so as to calculate the volume of the tumor in accordance with the following calculation formula: Tumor volume(mm^3)=Longest diameter(mm)×Shortest diameter(mm)×Shortest diameter(mm)/2
On the basis of the volumes of tumors obtained on the first day of administration, the nude mice were grouped such that averages of the tumor volumes were substantially equal among the groups. Each test substance was dissolved in DMSO, Tween 80 was added thereto to prepare a solution in a 10-fold concentration and the thus prepared solution was stored at the freezer before use. Immediately before the administration, the stock solution was diluted with a 5% glucose solution to obtain a final administration solution (in which a ratio in % among DMSO, Tween 80 and the 5% glucose solution was 3.5:6.5:90). Each evaluation sample was orally administered to test substance administration group at a volume of 0.4 mL per 20 g of body weight once a day continuously for 14 days, and in a control group, an administration solvent was orally administered under the same conditions. Incidentally, the experiment was conducted on groups each consisting of 5 mice.
With respect to each of the control group and test substance administration group, a ratio of the weight measured on the final day to the weight measured on the first day (relative body weight: RBW) was calculated. If a ratio of the RBW of the test substance administration group/the RBW of the control group is 0.9 or more, the corresponding test substance administration group was defined as a well-tolerated. In the test substance administration group thus defined as well-tolerated, a ratio of the tumor volume of the test substance-dosing group to the tumor volume of the control group obtained on the last day (T/C) (%) was calculated, and shown in Table 26.

Q: For `CNC(=O)n1ccc2cc(Oc3ccnc(NC(=O)c4ccc(C5CCN(CCO)CC5)cc4)c3)c(OCCOC)cc21` [Example 22, 5-((2-(4-(1-(2-Hydroxyethyl)piperidin-4-yl)benzamide)pyridin-4-yl)oxy)-6-(2-methoxyethoxy)-N-methyl-1H-indole-1-carboxamide], which “T/C (%)” value (6.25 mg/kg) is on record?
A: 29%

Q: And the “T/C (%)” value (12.5 mg/kg)?
A: 11%

Q: What about the “T/C (%)” value (25 mg/kg) of the same compound?
A: 4%

Q: And the “T/C (%)” value (50 mg/kg)?
A: 2%
